Results: patent US10189840B2, “Substituted tricyclic heterocyclic compounds” (BRISTOL-MYERS SQUIBB COMPANY, priority 2015, dated 2019)

Target: TNFα (Homo sapiens (Human), UniProt P01375)
Experiment: TNF induced HEK-Blue assay
Format: cell-based
Settings: TNFα 0.5 ng/ml; HEK-Blue-CD40L cells, NF-κB-driven secreted alkaline phosphatase reporter; 18 h
Description: Test compounds serially diluted in DMSO were plated in an assay plate (Labcyte, Cat. #LP-0200) at final concentrations ranging from 0.004 μM to 25 μM. TNFα (final concentration 0.5 ng/ml) or CD40L (final concentration 30 ng/ml) in assay buffer [DMEM, 4.5 g/l glucose (Gibco, Cat. 21063-029), 10% FBS (Sigma, F4135), 1% Penicillin-Streptomycin (Gibco, Cat. 15140-122), 1% Anti-Anti (Gibco, Cat. 15240-112) and 2 mM L-glutamine (Gibco, Cat. 25030-081)] was then added to the assay plate. After a 30 minute pre-incubation at 37° C. and 5% CO2, HEK-Blue-CD40L cells (InvivoGen, Cat. Code hkb-cd40) containing a NF-κB-driven secreted alkaline phosphatase reporter gene were seeded into the assay plate at a density of 20,000 cells per well. This plate was then incubated for 18 h at 37° C. and 5% CO2. Secreted alkaline phosphatase expression was measured using QUANTI-Blue (InvivoGen, Cat. Code rep-qb1) according to manufacturer's specifications and the assay plate was read on a PerkinElmer Envision at 620 nm.
Inhibition data for the test compound over a range of concentrations was plotted as percentage inhibition of the test compound (100%=maximum inhibition). IC50 values were determined after correcting for background [(sample read−mean of low control)/(mean of high control−mean of low control)] where by the low control is DMSO without stimulation and high control is DMSO with stimulation. The IC50 is defined as the concentration of test compound which produces 50% inhibition and was quantified using the 4 parameter logistic equation to fit the data.
Table 5 lists the IC50 values measured in the TNF induced HEK-Blue assay for Examples 1 to 40 of this invention.

TNFα, sequence (P01375 77-233): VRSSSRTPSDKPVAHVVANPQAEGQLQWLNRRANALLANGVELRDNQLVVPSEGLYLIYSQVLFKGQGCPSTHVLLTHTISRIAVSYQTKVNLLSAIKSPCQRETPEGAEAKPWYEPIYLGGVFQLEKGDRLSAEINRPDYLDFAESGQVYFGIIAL

Row | SMILES | IC50 [nM]
1 | COc1ccccc1C1CC(O)c2nc3ccc(-c4ccc(C(C)(C)O)cc4)nc3n21 (single isomer, unassigned) [Example 12 (e2), 2-(4-(2-hydroxypropan-2-yl)phenyl)-8-(2-methoxyphenyl)-7,8-dihydro-6H-pyrrolo[2′,1′:2,3]imidazo[4,5-b]pyridin-6-ol] | 1000 to 10000
2 | COc1ccccc1C1CC(O)c2nc3ccc(-c4ccc(C(C)(C)O)cc4)nc3n21 (single isomer, unassigned) [Example 12 (e3), 2-(4-(2-hydroxypropan-2-yl)phenyl)-8-(2-methoxyphenyl)-7,8-dihydro-6H-pyrrolo[2′,1′:2,3]imidazo[4,5-b]pyridin-6-ol] | 10000 to 25000
3 | COc1ccccc1C1CC(O)c2nc3ccc(-c4ccc(C(C)(C)O)cc4)nc3n21 (single isomer, unassigned) [Example 12 (e4), 2-(4-(2-hydroxypropan-2-yl)phenyl)-8-(2-methoxyphenyl)-7,8-dihydro-6H-pyrrolo[2′,1′:2,3]imidazo[4,5-b]pyridin-6-ol] | 1000 to 10000
4 | CC(C)(O)c1ccc(-c2ccc3nc4n(c3n2)C(c2cc(F)ccc2C(F)(F)F)CC4O)cc1 (single isomer, unassigned) [Example 13 (e1), 8-(5-fluoro-2-(trifluoromethyl)phenyl)-2-(4-(2-hydroxypropan-2-yl)phenyl)-7,8-dihydro-6H-pyrrolo[2′,1′:2,3]imidazo[4,5-b]pyridin-6-ol] | < 1000
5 | CC(C)(O)c1ccc(-c2ccc3nc4n(c3n2)C(c2cc(F)ccc2C(F)(F)F)CC4O)cc1 (single isomer, unassigned) [Example 13 (e2), 8-(5-fluoro-2-(trifluoromethyl)phenyl)-2-(4-(2-hydroxypropan-2-yl)phenyl)-7,8-dihydro-6H-pyrrolo[2′,1′:2,3]imidazo[4,5-b]pyridin-6-ol] | 1000 to 10000
6 | CC(C)(O)c1ccc(-c2ccc3nc4n(c3n2)C(c2cc(F)ccc2C(F)(F)F)CC4O)cc1 (single isomer, unassigned) [Example 13 (e3), 8-(5-fluoro-2-(trifluoromethyl)phenyl)-2-(4-(2-hydroxypropan-2-yl)phenyl)-7,8-dihydro-6H-pyrrolo[2′,1′:2,3]imidazo[4,5-b]pyridin-6-ol] | 1000 to 10000
7 | CC(C)(O)c1ccc(-c2ccc3nc4n(c3n2)C(c2cc(F)ccc2C(F)(F)F)CC4O)cc1 (single isomer, unassigned) [Example 13 (e4), 8-(5-fluoro-2-(trifluoromethyl)phenyl)-2-(4-(2-hydroxypropan-2-yl)phenyl)-7,8-dihydro-6H-pyrrolo[2′,1′:2,3]imidazo[4,5-b]pyridin-6-ol] | 1000 to 10000
8 | COc1ccc(-c2ccc3nc4n(c3n2)C(c2ccccc2OC(F)F)CC4F)cn1 (single isomer, unassigned) [Example 18 (e1), 8-(2-(difluoromethoxy)phenyl)-6-fluoro-2-(6-methoxypyridin-3-yl)-7,8-dihydro-6H-pyrrolo[2′,1′:2,3]imidazo[4,5-b]pyridine] | < 1000
9 | COc1ccc(-c2ccc3nc4n(c3n2)C(c2ccccc2OC(F)F)CC4F)cn1 (single isomer, unassigned) [Example 18 (e2), 8-(2-(difluoromethoxy)phenyl)-6-fluoro-2-(6-methoxypyridin-3-yl)-7,8-dihydro-6H-pyrrolo[2′,1′:2,3]imidazo[4,5-b]pyridine] | 10000 to 25000
10 | CC(C)(O)c1ccc(-c2ccc3nc4n(c3n2)C(c2ccccc2C2CC2)CC4F)cc1 (single isomer, unassigned) [Example 21 (e1), 2-(4-(8-(2-cyclopropylphenyl)-6-fluoro-7,8-dihydro-6H-pyrrolo[2′,1′:2,3]imidazo[4,5-b]pyridin-2-yl)phenyl)propan-2-ol] | < 1000

More lines, now with the values ahead:

Row | IC50 [nM] | SMILES
11 | 1000 to 10000 | CC(C)(O)c1ccc(-c2ccc3nc4n(c3n2)C(c2ccccc2C(F)(F)F)CC4F)cc1 (single isomer, unassigned) [Example 14 (e1), 2-(4-(6-Fluoro-8-(2-(trifluoromethyl)phenyl)-7,8-dihydro-6H-pyrrolo[2′,1′:2,3]imidazo[4,5-b]pyridin-2-yl)phenyl)propan-2-ol]
12 | < 1000 | CC(C)(O)c1ccc(-c2ccc3nc4n(c3n2)C(c2ccccc2C(F)(F)F)CC4F)cc1 (single isomer, unassigned) [Example 14 (e2), 2-(4-(6-Fluoro-8-(2-(trifluoromethyl)phenyl)-7,8-dihydro-6H-pyrrolo[2′,1′:2,3]imidazo[4,5-b]pyridin-2-yl)phenyl)propan-2-ol]
13 | 1000 to 10000 | CC(C)(O)c1ccc(-c2ccc3nc4n(c3n2)C(c2ccccc2C(F)(F)F)CC4F)cc1 (single isomer, unassigned) [Example 14 (e3), 2-(4-(6-Fluoro-8-(2-(trifluoromethyl)phenyl)-7,8-dihydro-6H-pyrrolo[2′,1′:2,3]imidazo[4,5-b]pyridin-2-yl)phenyl)propan-2-ol]
14 | < 1000 | CC(C)(O)c1ccc(-c2ccc3nc4n(c3n2)C(c2ccccc2C(F)(F)F)CC4F)cc1 (single isomer, unassigned) [Example 14 (e4), 2-(4-(6-Fluoro-8-(2-(trifluoromethyl)phenyl)-7,8-dihydro-6H-pyrrolo[2′,1′:2,3]imidazo[4,5-b]pyridin-2-yl)phenyl)propan-2-ol]
15 | 10000 to 25000 | CC(C)(O)c1ccc(-c2ccc3nc4n(c3n2)C(c2ccccc2OC(F)F)CC4F)cc1 (single isomer, unassigned) [Example 15 (e2), 2-(4-(8-(2-(difluoromethoxy)phenyl)-6-fluoro-7,8-dihydro-6H-pyrrolo[2′,1′:2,3]imidazo[4,5-b]pyridin-2-yl)phenyl)propan-2-ol]
16 | 1000 to 10000 | CC(C)(O)c1ccc(-c2ccc3nc4n(c3n2)C(c2ccccc2C2CC2)CC4F)cc1 (single isomer, unassigned) [Example 21 (e2), 2-(4-(8-(2-cyclopropylphenyl)-6-fluoro-7,8-dihydro-6H-pyrrolo[2′,1′:2,3]imidazo[4,5-b]pyridin-2-yl)phenyl)propan-2-ol]
17 | < 1000 | CC(C)(O)c1ccc(-c2ccc3nc4n(c3n2)C(c2ccccc2C2CC2)CC4F)cc1 (single isomer, unassigned) [Example 21 (e4), 2-(4-(8-(2-cyclopropylphenyl)-6-fluoro-7,8-dihydro-6H-pyrrolo[2′,1′:2,3]imidazo[4,5-b]pyridin-2-yl)phenyl)propan-2-ol]
18 | < 1000 | CC(C)(O)c1ccc(-c2ccc3nc4n(c3n2)C(c2ccccc2OC(F)(F)F)CC4F)cc1 (single isomer, unassigned) [Example 22 (e1), 2-(4-(6-fluoro-8-(2-(trifluoromethoxy)phenyl)-7,8-dihydro-6H-pyrrolo[2′,1′:2,3]imidazo[4,5-b]pyridin-2-yl)phenyl)propan-2-ol]
19 | 1000 to 10000 | CC(C)(O)c1ccc(-c2ccc3nc4n(c3n2)C(c2ccccc2OC(F)(F)F)CC4F)cc1 (single isomer, unassigned) [Example 22 (e2), 2-(4-(6-fluoro-8-(2-(trifluoromethoxy)phenyl)-7,8-dihydro-6H-pyrrolo[2′,1′:2,3]imidazo[4,5-b]pyridin-2-yl)phenyl)propan-2-ol]
20 | < 1000 | CC(C)(O)c1ccc(-c2ccc3nc4n(c3n2)C(c2ccccc2OC(F)(F)F)CC4F)cc1 (single isomer, unassigned) [Example 22 (e4), 2-(4-(6-fluoro-8-(2-(trifluoromethoxy)phenyl)-7,8-dihydro-6H-pyrrolo[2′,1′:2,3]imidazo[4,5-b]pyridin-2-yl)phenyl)propan-2-ol]
21 | 1000 to 10000 | CC(C)(O)c1ccc(-c2ccc3nc4n(c3n2)C(c2c(F)cccc2C(F)(F)F)CC4F)cc1 (single isomer, unassigned) [Example 23 (e2), 2-(4-(6-fluoro-8-(2-fluoro-6-(trifluoromethyl)phenyl)-7,8-dihydro-6H-pyrrolo[2′,1′:2,3]imidazo[4,5-b]pyridin-2-yl)phenyl)propan-2-ol]
22 | 1000 to 10000 | CC(C)(O)c1ccc(-c2ccc3nc4n(c3n2)C(c2cc(F)ccc2C(F)(F)F)CC4F)cc1 (single isomer, unassigned) [Example 24 (e1), 2-(4-(6-fluoro-8-(5-fluoro-2-(trifluoromethyl)phenyl)-7,8-dihydro-6H-yrrolo[2′,1′:2,3]imidazo[4,5-b]pyridin-2-yl)phenyl)propan-2-ol]
23 | 1000 to 10000 | CC(C)(O)c1ccc(-c2ccc3nc4n(c3n2)C(c2cc(F)ccc2C(F)(F)F)CC4F)cc1 (single isomer, unassigned) [Example 24 (e2), 2-(4-(6-fluoro-8-(5-fluoro-2-(trifluoromethyl)phenyl)-7,8-dihydro-6H-yrrolo[2′,1′:2,3]imidazo[4,5-b]pyridin-2-yl)phenyl)propan-2-ol]
24 | < 1000 | CC(C)(O)c1ccc(-c2ccc3nc4n(c3n2)C(c2ccccc2C(F)(F)F)CC4)cc1 (single isomer, unassigned) [Example 25 (e1), 2-(4-(8-(2-(Trifluoromethyl)phenyl)-7,8-dihydro-6H-pyrrolo[2′,1′:2,3]imidazo[4,5-b]pyridin-2-yl)phenyl)propan-2-ol]
